According to patent EP0090603A2, “Antibacterial compounds” (BEECHAM GROUP PLC, priority 1982, dated 1983):
≈ marks a conversion by molar mass, not a printed value.

How the values were obtained:
[1] = test system: M. suipneumoniae HK(2); assay: MIC against Mycoplasma, in vitro agar dilution; type: cell-based; conditions: Mesomycoplasma hyopneumoniae, 144 h; Friis broth solidified with 0.9% agarose, 10^3 to 10^5 C.F.U., 6 days at 37°C; read-out: MIC's against M. suipneumoniae HK(2)
[2] = test system: M. suipneumoniae Str. 11; assay: MIC against Mycoplasma, in vitro agar dilution; type: cell-based; conditions: Mesomycoplasma hyopneumoniae, STR.11, 144 h; Friis broth solidified with 0.9% agarose, 10^3 to 10^5 C.F.U., 6 days at 37°C; read-out: MIC's against M. suipneumoniae Str. 11
[3] = test system: M. suipneumoniae PW/C/210; assay: MIC against Mycoplasma, in vitro agar dilution; type: cell-based; conditions: Mesomycoplasma hyopneumoniae, 144 h; Friis broth solidified with 0.9% agarose, 10^3 to 10^5 C.F.U., 6 days at 37°C; read-out: MIC's against M. suipneumoniae PW/C/210
[4] = test system: M. suipneumoniae ATCC 25095; assay: MIC against Mycoplasma, in vitro agar dilution; type: cell-based; conditions: Mesomycoplasma hyopneumoniae, ATCC25095, 144 h; Friis broth solidified with 0.9% agarose, 10^3 to 10^5 C.F.U., 6 days at 37°C; read-out: MIC's against M. suipneumoniae ATCC 25095
[5] = test system: M. bovis NCTC 10131; assay: microbe, parasite or virus in culture; type: cell-based; conditions: NCTC10131, 144 h, read-out: MIC's against M. bovis NCTC 10131
[6] = test system: M. dispar NCTC 10125; assay: MIC against Mycoplasma, in vitro agar dilution; type: cell-based; conditions: 144 h; Friis broth solidified with 0.9% agarose, 10^3 to 10^5 C.F.U., 6 days at 37°C; read-out: MIC's against M. dispar NCTC 10125
[7] = test system: M. gallisepticum S6; assay: MIC against Mycoplasma, in vitro agar dilution; type: cell-based; conditions: Mycoplasmoides gallisepticum, S6, 144 h; Friis broth solidified with 0.9% agarose, 10^3 to 10^5 C.F.U., 6 days at 37°C; read-out: MIC's against M. gallisepticum S6
[8] = test system: E. coli E1; assay: MIC against Veterinary Bacteria, in vitro agar dilution; conditions: Escherichia coli, E1, 18 h, read-out: MIC's against E. coli E1
Procedure: (§1) The activity of the compounds of the Examples against various veterinarily important bacteria, was assayed in vitro using two-fold serial dilutions in Diagnostic Sensitivity Test Agar inoculated with 10^4 organisms.

[9] = test system: Past. multocida PA1; assay: as above; conditions: Pasteurella multocida, PA1, 18 h, read-out: MIC's against Past. multocida PA1
Procedure: as §1

[10] = test system: Past. haemolytica PA5; assay: as above; conditions: Mannheimia haemolytica, PA5, 18 h, read-out: MIC's against Past. haemolytica PA5
Procedure: as §1

[11] = test system: Erysipelothrix rhusiopathiae NCTC 8163; assay: as above; conditions: Erysipelothrix rhusiopathiae, NCTC8163, 18 h, read-out: MIC's against Erysipelothrix rhusiopathiae NCTC 8163
Procedure: as §1

[12] = test system: Staph. aureus B4 (pen. resistant); assay: as above; conditions: Staphylococcus aureus, 18 h, read-out: MIC's against Staph. aureus B4 (pen. resistant)
Procedure: as §1

[13] = test system: Strep. suis (group D) SPS11; assay: as above; conditions: Streptococcus suis, 18 h, read-out: MIC's against Strep. suis (group D) SPS11
Procedure: as §1

[14] = test system: Strep. dysgalactiae SPD1; assay: as above; conditions: Streptococcus dysgalactiae, SPD1, 18 h, read-out: MIC's against Strep. dysgalactiae SPD1
Procedure: as §1

SMILES	MIC [1]	MIC [2]	MIC [3]	MIC [4]	MIC [5]	MIC [6]	MIC [7]	MIC [8]	MIC [9]	MIC [10]	MIC [11]	MIC [12]	MIC [13]	MIC [14]
COC(=O)C(C)=C(C)CC1OCC(CC2OC2C(C)C(C)O)C(O)C1O [Example 2, Methyl 4-[5S-(2S,3S-epoxy-5S-hydroxy-4S-methylhexyl)-3R,4R-dihydroxytetrahydropyran-2S-yl]-2,3-dimethylbut-2(E)-enoate]	10 µg/mL (≈ 26.8 µM)	5 µg/mL (≈ 13.4 µM)	5 µg/mL (≈ 13.4 µM)	5 µg/mL (≈ 13.4 µM)	0.25 µg/mL (≈ 0.671 µM)	1 µg/mL (≈ 2.68 µM)	> 10 µg/mL	> 80 µg/mL	10 µg/mL (≈ 26.8 µM)	40 µg/mL (≈ 107 µM)	> 80 µg/mL	5 µg/mL (≈ 13.4 µM)	> 80 µg/mL	40 µg/mL (≈ 107 µM)
CC(CC1OCC(CC2OC2C(C)C(C)O)C(O)C1O)=C(C)C(=O)O [Example 4, Sodium 4-[5S-(2S, 35-epoxy-5S-hydroxy-4S-methylhexyl)-3R,4R-dihydroxytetrahydropyran-2S-yl]-2,3-dimethylbut-2(E)-enoate]	0.25 µg/mL	0.1 µg/mL	0.1 µg/mL	0.25 µg/mL	0.025 µg/mL	0.05 µg/mL	5 µg/mL	> 80 µg/mL	5 µg/mL	10 µg/mL	80 µg/mL	1.25 µg/mL	20 µg/mL	1.25 µg/mL
CCOC(=O)C(C)=C(C)CC1OCC(CC2OC2C(C)C(C)O)C(O)C1O [Example 1, Ethyl 4-[5S-(2S,3S-epoxy-5S-hydroxy-4S-methylhexyl)-3R,4R-dihydroxytetrahydropyran-2S-yl]-2,3-dimethylbut-2(E)-enoate]	1 µg/mL (≈ 2.59 µM)	1 µg/mL (≈ 2.59 µM)	0.5 µg/mL (≈ 1.29 µM)	1 µg/mL (≈ 2.59 µM)	0.05 µg/mL (≈ 0.129 µM)	0.25 µg/mL (≈ 0.647 µM)	> 10 µg/mL	> 80 µg/mL	2.5 µg/mL (≈ 6.47 µM)	20 µg/mL (≈ 51.7 µM)	80 µg/mL (≈ 207 µM)	0.625 µg/mL (≈ 1.62 µM)	> 80 µg/mL	5 µg/mL (≈ 12.9 µM)
CC(CC1OCC(CC2OC2C(C)C(C)O)C(O)C1O)=C(C)C(=O)OCc1cccc([N+](=O)[O-])c1 [Example 3, m-Nitrobenzyl 4-[5S-(2S,3S-epoxy-5S-hydroxy-4S-methylhexyl)-3R,4R-dihydroxytetrahydropyran-2S-yl]-2,3-di-methylbut-2(E)-enoate]	0.1 µg/mL (≈ 0.203 µM)	0.05 µg/mL (≈ 0.101 µM)	0.025 µg/mL (≈ 0.0507 µM)	0.025 µg/mL (≈ 0.0507 µM)	0.025 µg/mL (≈ 0.0507 µM)	< 0.01 µg/mL	5 µg/mL (≈ 10.1 µM)	> 80 µg/mL	2.5 µg/mL (≈ 5.07 µM)	10 µg/mL (≈ 20.3 µM)	40 µg/mL (≈ 81 µM)	1.25 µg/mL (≈ 2.53 µM)	10 µg/mL (≈ 20.3 µM)	0.312 µg/mL (≈ 0.632 µM)
